Structures are written as SMILES. pIC50: −log10 of the molar value.

The term pIC50 denotes the negative decadic logarithm of the IC50, by convention in mol/L. A low value points to a high IC50.

One experiment concerns TEAD reporter-containing human breast cancer cell line MCF7. The experiment can be described thus: TEAD reporter (luciferase) assay. The class given is cell-based. The settings on record: TEAD reporter MCF7 cells, 24 hours treatment, 1% serum media. How it is done:
The TEAD reporter-containing human breast cancer cell line MCF7 (60618, BPS bioscience) was cultured according to the manufacturer's instructions. Cells were plated in 96-well white plates at a density of 30,000 per well and incubated overnight. The following day cells were treated with small molecules in 1% serum media (0.1% v/v DMSO). After 24 hours of the treatment, cell viability was evaluated by using CCK-8 reagent (CK04, Dojindo) and measuring absorbance at 450 nm. Then, the assay for luciferase activity was performed using Dual-Glo® Luciferase Assay System (Promega, E2940) following the manufacturer's instructions. Luminescence intensity was measured and the potency of the compounds was determined by IC50 value generated from non-linear regression analysis of the dose-response curves.
IC50 for luciferase activity are shown in the Table 1 below and designated within the following ranges. [+++: ≤0.1 μM, ++: >0.1 μM to ≤1 μM, +: >1 μM to ≤10 μM, −: >10 μM]
The compound `C=CC(=O)Nc1cnc2c(c1)c(-c1cccc(C(F)(F)F)c1)cn2C(F)F` [Example 134, N-(1-(Difluoromethyl)-3-(3-(trifluoromethyl)phenyl)-1H-pyrrolo[2,3-b]pyridin-5-yl)acrylamide] showed a pIC50 of 6.00 to 7.00.

In turn, `C=CC(=O)Nc1cc(F)c2c(c1)c(/C=C/C1CCC(F)(F)CC1)cn2C(C)C` [Compound 38, (E)-N-(3-(2-(4,4-Difluorocyclohexyl)vinyl)-7-fluoro-1-isopropyl-1H-indol-5-yl)acrylamide] gave a negative logarithm of the IC50 (pIC50) of 5.00 to 6.00.

For `C=CC(=O)Nc1cnc2c(c1)c(-c1cccc(C#N)c1)cn2C` [Compound 56, N-(3-(3-Cyanophenyl)-1-methyl-1H-pyrrolo[2,3-b]pyridin-5-yl)acrylamide], the pIC50 is 5.00 to 6.00.

In the case of `C=CC(=O)Nc1ccc2c(c1)c(/C=C/c1ccc(Cl)cc1)cn2C1CCCC1` [Compound 11, (E)-N-(3-(4-Chlorostyryl)-1-cyclopentyl-1H-indol-5-yl)acrylamide], the pIC50 is 5.00 to 6.00.

As for `C=CC(=O)Nc1cnc2c(c1)c(Cc1cccc(Cl)c1)cn2C` [Example 136, N-(3-(3-Chlorobenzyl)-1-methyl-1H-pyrrolo[2,3-b]pyridin-5-yl)acrylamide], the pIC50 is at least 7.00.

Turning to `C=CC(=O)Nc1cc(F)c2c(c1)c(/C=C/c1ccc(Cl)cc1)cn2C(C)C` [Compound 39, (E)-N-(3-(4-Chlorostyryl)-7-fluoro-1-isopropyl-1H-indol-5-yl)acrylamide], the pIC50 was below 5.00.

Turning to `C=CC(=O)Nc1cnc2c(c1)c(-c1ccc(F)c(Cl)c1)cn2C(F)F` [Example 135, N-(3-(3-Chloro-4-fluorophenyl)-1-(difluoromethyl)-1H-pyrrolo[2,3-b]pyridin-5-yl)acrylamide], the pIC50 is 5.00 to 6.00.

The compound `C=CC(=O)Nc1cnc2c(c1)c(-c1ccc(OC)cc1)cn2C` [Example 90, N-(3-(4-Methoxyphenyl)-1-methyl-1H-pyrrolo[2,3-b]pyridin-5-yl)acrylamide] showed a pIC50 of 5.00 to 6.00.

`C=CC(=O)Nc1cnc2c(c1)c(C1=CCCCC1)cn2C` [Example 101, N-(3-(Cyclohex-1-en-1-yl)-1-methyl-1H-pyrrolo[2,3-b]pyridin-5-yl)acrylamide] gave a pIC50 of 5.00 to 6.00.

On to `C=CC(=O)Nc1cnc2c(c1)c(/C=C/c1ccccc1)cn2C` [Compound 45, (E)-N-(1-Methyl-3-styryl-1H-pyrrolo[2,3-b]pyridin-5-yl)acrylamide], for which the pIC50 is 6.00 to 7.00.

`C=CC(=O)Nc1cnc2c(c1)c(C=C1CCCCC1)cn2C` [Example 137, N-(3-(Cyclohexylidenemethyl)-1-methyl-1H-pyrrolo[2,3-b]pyridin-5-yl)acrylamide] had a pIC50 of at least 7.00.

`C=CC(=O)Nc1ccc2c(c1)c(/C=C/c1ccc(Cl)cc1)nn2C1CCCC1` [Compound 8, (E)-N-(3-(4-Chlorostyryl)-1-cyclopentyl-1H-indazol-5-yl)acrylamide] had a pIC50 of 5.00 to 6.00.

Regarding `C=CC(=O)Nc1cnc2c(c1)c(/C=C/c1ccc3c(c1)OCCO3)cn2C` [Example 61, (E)-N-(3-(2-(2,3-Dihydrobenzo[b][1,4]dioxin-6-yl)vinyl)-1-methyl-1H-pyrrolo[2,3-b]pyridin-5-yl)acrylamide], the pIC50 is 5.00 to 6.00.

Another experiment relates to MSTO-211H cells. The experiment can be described thus: Proliferation assay (EdU incorporation), MSTO-211H. The class given is cell-based. The note with it: Homo sapiens, 72 h, YAP-driven MSTO-211H (LATS1 mutation), 3 days with inhibitor, 1% serum. How it is done: The anti-proliferative activity of TEAD inhibitors was evaluated in cells with different properties for YAP; “YAP-driven” cells (MSTO-211H, NCI-H226) in which YAP located in the nucleus and “YAP-independent” cells (OCM1, NCI-H28) where YAP located in the cytoplasm. […] TEAD inhibitors were evaluated with cell lines with these YAP profiling and mutational status.
The next day, replace it with cell starvation medium containing 1% serum. After one day of growth in the starvation medium, the cells were incubated for 3 days with TEAD inhibitors in a concentration range of 0.01-10 μM. After 3 days, EdU (Invitrogen) at a concentration of 10 µM was added to the starvation medium and incubated for an additional 24 hours. After removing the starvation medium remaining in each well, wash the wells with PBS. Cells were fixed with 4% paraformaldehyde (Electron microscopy sciences) at room temperature for 20 minutes. After removing the fix solution remaining in each well, wash the wells with PBS and the cells were permeabilized for 40 minutes by adding 0.5% triton X-100 (Sigma Aldrich). After removing the permeabilization solution remaining in each well, the EdU labeling was performed according to the instructions of the manufacturer's instructions (Click-iT™ Cell Reaction Buffer Kit, Invitrogen). After the Click reaction for EdU labeling, nuclei were stained with […] (Thermo Scientific) for total cell count analysis. After plate preparation for detection, Image acquisition was performed using the ImageXpress Micro XLS. The acquired images were analyzed using MetaXpress software (molecular devices). Through this experimental method, it was possible to confirm the inhibitory activity of TEAD inhibitors by detection EdU incorporated into proliferating cells.
IC50 for cell proliferation inhibition activity are shown in the Table 2 below and designated within the following ranges. [+++: ≤0.1 μM, ++: >0.1 μM to ≤1 μM, +: >1 μM to ≤10μ, −: >10 μM]
With `C=CC(=O)Nc1cnc2c(c1)c(-c1ccc(C(F)(F)F)cc1)cn2CC` [Example 95, N-(1-Ethyl-3-(4-(trifluoromethyl)phenyl)-1H-pyrrolo[2,3-b]pyridin-5-yl)acrylamide], the pIC50 was 6.00 to 7.00.

Compound `C=CC(=O)Nc1cnc2c(c1)c(-c1ccc(C(F)(F)F)cc1)cn2C(F)F` [Example 129, N-(1-(Difluoromethyl)-3-(4-(trifluoromethyl)phenyl)-1H-pyrrolo[2,3-b]pyridin-5-yl)acrylamide] showed a pIC50 of 6.00 to 7.00.

In turn, `C=CC(=O)Nc1cnc2c(c1)c(-c1ccc(F)cc1)cn2C` [Example 103, N-(3-(4-Fluorophenyl)-1-methyl-1H-pyrrolo[2,3-b]pyridin-5-yl)acrylamide] gave a negative-log IC50 (pIC50) of 6.00 to 7.00.

Turning to `C=CC(=O)Nc1cnc2c(c1)c(/C=C/c1cccc(Cl)c1)cn2C` [Compound 41, (E)-N-(3-(3-Chlorostyryl)-1-methyl-1H-pyrrolo[2,3-b]pyridin-5-yl)acrylamide], the pIC50 is at least 7.00.

`C=CC(=O)Nc1cnc2c(c1)c(/C=C/c1ccc(OC)c(F)c1)cn2C` [Compound 42, (E)-N-(3-(3-Fluoro-4-methoxystyryl)-1-methyl-1H-pyrrolo[2,3-b]pyridin-5-yl)acrylamide] gave a pIC50 of 6.00 to 7.00.

`C=CC(=O)Nc1cnc2ccn(CC3CCCCC3)c2c1` [Example 77, N-(1-(Cyclohexylmethyl)-1H-pyrrolo[3,2-b]pyridin-6-yl)acrylamide]: the pIC50 is 6.00 to 7.00.

Take `C=CC(=O)Nc1cnc2c(c1)c(-c1ccc(C)cc1)cn2C` [Example 104, N-(1-Methyl-3-(p-tolyl)-1H-pyrrolo[2,3-b]pyridin-5-yl)acrylamide]: the pIC50 was 6.00 to 7.00.

Turning to `C=CC(=O)N(C)c1cnc2c(c1)c(/C=C/C1CCC(F)(F)CC1)cn2C` [Example 66, (E)-N-(3-(2-(4,4-Difluorocyclohexyl)vinyl)-1-methyl-1H-pyrrolo[2,3-b]pyridin-5-yl)-N-methylacrylamide], the pIC50 is 6.00 to 7.00.

The compound `C=CC(=O)Nc1cnc2c(c1)c(-c1ccc(C(F)(F)F)cc1)cn2C(C)C` [Example 96, N-(1-isopropyl-3-(4-(trifluoromethyl)phenyl)-1H-pyrrolo[2,3-b]pyridin-5-yl)acrylamide] gave a pIC50 of 6.00 to 7.00.

The compound `C=CC(=O)Nc1cnc2c(c1)c(/C=C/c1ccc(F)c(F)c1)cn2C` [Compound 44, (E)-N-(3-(3,4-Difluorostyryl)-1-methyl-1H-pyrrolo[2,3-b]pyridin-5-yl)acrylamide] showed a pIC50 of at least 7.00.

For the compound `C=CC(=O)Nc1cnc2c(c1)c(/C=C/c1cccc(F)c1)cn2C` [Compound 40, (E)-N-(3-(3-Fluorostyryl)-1-methyl-1H-pyrrolo[2,3-b]pyridin-5-yl)acrylamide], the pIC50 is 6.00 to 7.00.

Turning to `C=CC(=O)Nc1ccc2c(/C=C/C3CCC(F)(F)CC3)cn(C)c2c1` [Compound 13, (E)-N-(3-(2-(4,4-Difluorocyclohexyl)vinyl)-1-methyl-1H-indol-6-yl)acrylamide], the pIC50 is 5.00 to 6.00.

In turn, `C=CC(=O)Nc1cnc2c(c1)c(-c1cccc(OCc3cccc(Cl)c3)c1)cn2C` [Compound 52, N-(3-(3-((3-Chlorobenzyl)oxy)phenyl)-1-methyl-1H-pyrrolo[2,3-b]pyridin-5-yl)acrylamide] had a pIC50 of 6.00 to 7.00.

`C=CC(=O)N(Cc1ccncc1)c1cnc2c(c1)c(/C=C/c1ccc(Cl)cc1)cn2C` [Example 68, (E)-N-(3-(4-Chlorostyryl)-1-methyl-1H-pyrrolo[2,3-b]pyridin-5-yl)-N-(pyridin-4-ylmethyl)acrylamide] showed a pIC50 of 5.00 to 6.00.

Compound `C=CC(=O)Nc1ccc2c(c1)c(/C=C/c1ccc(Cl)cc1)c(C)n2C` [Compound 14, (E)-N-(3-(4-Chlorostyryl)-1,2-dimethyl-1H-indol-5-yl)acrylamide] showed a pIC50 of 6.00 to 7.00.

With `C=CC(=O)Nc1cnc2c(c1)c(/C=C/c1ccc(C(F)(F)F)cc1)cn2C` [Compound 46, (E)-N-(1-Methyl-3-(4-(trifluoromethyl)styryl)-1H-pyrrolo[2,3-b]pyridin-5-yl)acrylamide], the pIC50 is 6.00 to 7.00.

The compound `C=CC(=O)Nc1cnc2c(c1)c(/C=C/C1CCCCC1)cn2C` [Compound 49, (E)-N-(3-(2-Cyclohexylvinyl)-1-methyl-1H-pyrrolo[2,3-b]pyridin-5-yl)acrylamide] gave a pIC50 of at least 7.00.

In the case of `C=CC(=O)Nc1cnc2c(c1)c(/C=C/c1ccc(C(C)C)cc1)cn2C` [Compound 43, (E)-N-(3-(4-Isopropylstyryl)-1-methyl-1H-pyrrolo[2,3-b]pyridin-5-yl)acrylamide], the pIC50 was 6.00 to 7.00.

With `C=CC(=O)Nc1cnc2c(c1)c(-c1cccc(N3CCCCC3)c1)cn2C` [Example 88, N-(1-Methyl-3-(3-(piperidin-1-yl)phenyl)-1H-pyrrolo[2,3-b]pyridin-5-yl)acrylamide], the negative logarithm of the IC50 (pIC50) was 6.00 to 7.00.

On to `C=CC(=O)N(Cc1ccccc1)c1cnc2c(c1)c(/C=C/c1ccc(Cl)cc1)cn2C` [Example 67, (E)-N-Benzyl-N-(3-(4-chlorostyryl)-1-methyl-1H-pyrrolo[2,3-b]pyridin-5-yl)acrylamide], for which the pIC50 is 5.00 to 6.00.
